# Where two headings read alike, the source gives them in different places.
# Experiments:
# Assay type in all cases: binding
# [1] = biological target: T1, HeLa cell extract proteins (Homo sapiens, UniProt O60313)
# T1 construct: endogenous in cells; host or cells: HeLa cell extract
# T1 sequence (O60313 88-960): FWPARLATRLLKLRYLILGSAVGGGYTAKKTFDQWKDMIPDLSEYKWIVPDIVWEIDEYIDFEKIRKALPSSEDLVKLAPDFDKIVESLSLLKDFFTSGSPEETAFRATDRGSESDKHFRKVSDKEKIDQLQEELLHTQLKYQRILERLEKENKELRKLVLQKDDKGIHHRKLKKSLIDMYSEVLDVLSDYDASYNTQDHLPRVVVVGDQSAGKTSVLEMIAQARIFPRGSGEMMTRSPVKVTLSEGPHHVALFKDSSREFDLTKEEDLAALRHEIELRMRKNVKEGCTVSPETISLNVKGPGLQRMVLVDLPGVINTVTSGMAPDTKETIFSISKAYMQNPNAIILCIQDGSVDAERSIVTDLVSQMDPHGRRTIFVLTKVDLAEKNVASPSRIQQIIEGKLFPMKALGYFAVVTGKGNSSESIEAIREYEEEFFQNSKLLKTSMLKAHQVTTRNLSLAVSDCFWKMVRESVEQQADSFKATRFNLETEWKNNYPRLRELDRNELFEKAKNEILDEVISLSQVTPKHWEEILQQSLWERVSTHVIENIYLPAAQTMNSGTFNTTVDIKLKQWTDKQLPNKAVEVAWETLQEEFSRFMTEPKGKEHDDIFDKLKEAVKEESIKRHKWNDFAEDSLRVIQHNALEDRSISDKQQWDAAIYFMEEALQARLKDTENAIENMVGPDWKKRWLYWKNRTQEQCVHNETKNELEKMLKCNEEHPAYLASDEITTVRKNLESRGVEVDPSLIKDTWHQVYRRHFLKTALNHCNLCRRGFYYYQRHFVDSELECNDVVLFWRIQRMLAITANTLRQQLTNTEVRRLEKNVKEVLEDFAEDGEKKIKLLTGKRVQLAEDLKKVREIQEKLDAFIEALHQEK
# [2] = biological target: T2, HeLa cell extract proteins (Homo sapiens, UniProt O60664)
# T2 construct: endogenous in cells; host or cells: HeLa cell extract
# T2 sequence (O60664 1-434): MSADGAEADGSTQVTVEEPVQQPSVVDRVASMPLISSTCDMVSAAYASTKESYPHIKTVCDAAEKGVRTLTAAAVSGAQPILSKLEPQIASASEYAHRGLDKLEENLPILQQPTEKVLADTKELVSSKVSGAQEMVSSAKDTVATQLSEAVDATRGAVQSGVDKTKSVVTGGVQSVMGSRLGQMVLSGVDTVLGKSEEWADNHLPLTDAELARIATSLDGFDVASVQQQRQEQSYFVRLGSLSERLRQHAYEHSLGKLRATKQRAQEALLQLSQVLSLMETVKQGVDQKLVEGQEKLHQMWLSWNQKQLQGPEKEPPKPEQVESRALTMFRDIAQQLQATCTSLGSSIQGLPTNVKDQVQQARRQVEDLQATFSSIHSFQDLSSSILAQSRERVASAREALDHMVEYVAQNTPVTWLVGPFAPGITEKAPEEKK
# [3] = biological target: T3, HeLa cell extract proteins (Homo sapiens, UniProt P24863)
# T3 construct: endogenous in cells; host or cells: HeLa cell extract
# T3 sequence (P24863 1-283): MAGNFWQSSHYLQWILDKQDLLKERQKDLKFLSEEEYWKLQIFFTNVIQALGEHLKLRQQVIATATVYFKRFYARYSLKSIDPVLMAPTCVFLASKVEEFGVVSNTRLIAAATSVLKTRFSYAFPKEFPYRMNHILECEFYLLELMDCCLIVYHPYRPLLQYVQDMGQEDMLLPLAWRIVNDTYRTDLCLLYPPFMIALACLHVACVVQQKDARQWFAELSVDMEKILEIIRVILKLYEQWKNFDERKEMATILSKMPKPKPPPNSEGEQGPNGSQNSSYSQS
# [4] = biological target: T4, HeLa cell extract proteins (Homo sapiens, UniProt P27797)
# T4 construct: endogenous in cells; host or cells: HeLa cell extract
# T4 sequence (P27797 18-417): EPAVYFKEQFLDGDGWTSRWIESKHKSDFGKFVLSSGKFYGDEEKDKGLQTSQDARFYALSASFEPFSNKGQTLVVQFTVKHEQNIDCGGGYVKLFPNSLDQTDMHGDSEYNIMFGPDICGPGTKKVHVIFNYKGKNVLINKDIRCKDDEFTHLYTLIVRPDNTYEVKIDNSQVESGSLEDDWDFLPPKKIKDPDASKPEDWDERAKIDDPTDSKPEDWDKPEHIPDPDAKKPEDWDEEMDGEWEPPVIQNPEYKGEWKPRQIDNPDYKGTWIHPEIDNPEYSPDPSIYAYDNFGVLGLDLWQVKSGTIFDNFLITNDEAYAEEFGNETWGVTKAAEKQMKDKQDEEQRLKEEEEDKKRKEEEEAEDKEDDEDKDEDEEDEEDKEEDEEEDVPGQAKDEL
# [5] = biological target: T5, HeLa cell extract proteins (Homo sapiens, UniProt Q14203)
# T5 construct: endogenous in cells; host or cells: HeLa cell extract
# [6] = biological target: T6, HeLa cell extract proteins (Homo sapiens, UniProt Q14204)
# T6 construct: endogenous in cells; host or cells: HeLa cell extract
# [7] = biological target: T7, HeLa cell extract proteins (Homo sapiens, UniProt Q96BY9)
# T7 construct: endogenous in cells; host or cells: HeLa cell extract
# T7 sequence (Q96BY9 31-339): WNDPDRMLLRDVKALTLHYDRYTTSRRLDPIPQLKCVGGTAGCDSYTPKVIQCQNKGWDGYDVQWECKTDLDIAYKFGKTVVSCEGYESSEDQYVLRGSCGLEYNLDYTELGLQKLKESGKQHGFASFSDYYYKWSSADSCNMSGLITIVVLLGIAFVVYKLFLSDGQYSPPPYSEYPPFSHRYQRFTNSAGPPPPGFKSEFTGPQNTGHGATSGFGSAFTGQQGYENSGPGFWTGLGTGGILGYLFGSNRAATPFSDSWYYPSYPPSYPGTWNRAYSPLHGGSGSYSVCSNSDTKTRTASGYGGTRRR
# [8] = biological target: T8, HeLa cell extract proteins (Homo sapiens, UniProt Q99497)
# T8 construct: endogenous in cells; host or cells: HeLa cell extract
# T8 sequence (Q99497 1-189): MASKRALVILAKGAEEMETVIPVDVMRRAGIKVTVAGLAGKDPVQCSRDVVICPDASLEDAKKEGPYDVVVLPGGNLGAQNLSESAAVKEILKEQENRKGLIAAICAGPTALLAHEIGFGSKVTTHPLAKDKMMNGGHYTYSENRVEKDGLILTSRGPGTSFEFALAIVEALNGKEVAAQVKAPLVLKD
# [9] = HeLa, protein TMEM66 (TRANSMEMBRANE PROTEIN 66 PRECURSOR)
# [10] = HeLa, protein DJ-1 (PROTEIN DJ-1.)
# T6 sequence (Q14204 whole entry): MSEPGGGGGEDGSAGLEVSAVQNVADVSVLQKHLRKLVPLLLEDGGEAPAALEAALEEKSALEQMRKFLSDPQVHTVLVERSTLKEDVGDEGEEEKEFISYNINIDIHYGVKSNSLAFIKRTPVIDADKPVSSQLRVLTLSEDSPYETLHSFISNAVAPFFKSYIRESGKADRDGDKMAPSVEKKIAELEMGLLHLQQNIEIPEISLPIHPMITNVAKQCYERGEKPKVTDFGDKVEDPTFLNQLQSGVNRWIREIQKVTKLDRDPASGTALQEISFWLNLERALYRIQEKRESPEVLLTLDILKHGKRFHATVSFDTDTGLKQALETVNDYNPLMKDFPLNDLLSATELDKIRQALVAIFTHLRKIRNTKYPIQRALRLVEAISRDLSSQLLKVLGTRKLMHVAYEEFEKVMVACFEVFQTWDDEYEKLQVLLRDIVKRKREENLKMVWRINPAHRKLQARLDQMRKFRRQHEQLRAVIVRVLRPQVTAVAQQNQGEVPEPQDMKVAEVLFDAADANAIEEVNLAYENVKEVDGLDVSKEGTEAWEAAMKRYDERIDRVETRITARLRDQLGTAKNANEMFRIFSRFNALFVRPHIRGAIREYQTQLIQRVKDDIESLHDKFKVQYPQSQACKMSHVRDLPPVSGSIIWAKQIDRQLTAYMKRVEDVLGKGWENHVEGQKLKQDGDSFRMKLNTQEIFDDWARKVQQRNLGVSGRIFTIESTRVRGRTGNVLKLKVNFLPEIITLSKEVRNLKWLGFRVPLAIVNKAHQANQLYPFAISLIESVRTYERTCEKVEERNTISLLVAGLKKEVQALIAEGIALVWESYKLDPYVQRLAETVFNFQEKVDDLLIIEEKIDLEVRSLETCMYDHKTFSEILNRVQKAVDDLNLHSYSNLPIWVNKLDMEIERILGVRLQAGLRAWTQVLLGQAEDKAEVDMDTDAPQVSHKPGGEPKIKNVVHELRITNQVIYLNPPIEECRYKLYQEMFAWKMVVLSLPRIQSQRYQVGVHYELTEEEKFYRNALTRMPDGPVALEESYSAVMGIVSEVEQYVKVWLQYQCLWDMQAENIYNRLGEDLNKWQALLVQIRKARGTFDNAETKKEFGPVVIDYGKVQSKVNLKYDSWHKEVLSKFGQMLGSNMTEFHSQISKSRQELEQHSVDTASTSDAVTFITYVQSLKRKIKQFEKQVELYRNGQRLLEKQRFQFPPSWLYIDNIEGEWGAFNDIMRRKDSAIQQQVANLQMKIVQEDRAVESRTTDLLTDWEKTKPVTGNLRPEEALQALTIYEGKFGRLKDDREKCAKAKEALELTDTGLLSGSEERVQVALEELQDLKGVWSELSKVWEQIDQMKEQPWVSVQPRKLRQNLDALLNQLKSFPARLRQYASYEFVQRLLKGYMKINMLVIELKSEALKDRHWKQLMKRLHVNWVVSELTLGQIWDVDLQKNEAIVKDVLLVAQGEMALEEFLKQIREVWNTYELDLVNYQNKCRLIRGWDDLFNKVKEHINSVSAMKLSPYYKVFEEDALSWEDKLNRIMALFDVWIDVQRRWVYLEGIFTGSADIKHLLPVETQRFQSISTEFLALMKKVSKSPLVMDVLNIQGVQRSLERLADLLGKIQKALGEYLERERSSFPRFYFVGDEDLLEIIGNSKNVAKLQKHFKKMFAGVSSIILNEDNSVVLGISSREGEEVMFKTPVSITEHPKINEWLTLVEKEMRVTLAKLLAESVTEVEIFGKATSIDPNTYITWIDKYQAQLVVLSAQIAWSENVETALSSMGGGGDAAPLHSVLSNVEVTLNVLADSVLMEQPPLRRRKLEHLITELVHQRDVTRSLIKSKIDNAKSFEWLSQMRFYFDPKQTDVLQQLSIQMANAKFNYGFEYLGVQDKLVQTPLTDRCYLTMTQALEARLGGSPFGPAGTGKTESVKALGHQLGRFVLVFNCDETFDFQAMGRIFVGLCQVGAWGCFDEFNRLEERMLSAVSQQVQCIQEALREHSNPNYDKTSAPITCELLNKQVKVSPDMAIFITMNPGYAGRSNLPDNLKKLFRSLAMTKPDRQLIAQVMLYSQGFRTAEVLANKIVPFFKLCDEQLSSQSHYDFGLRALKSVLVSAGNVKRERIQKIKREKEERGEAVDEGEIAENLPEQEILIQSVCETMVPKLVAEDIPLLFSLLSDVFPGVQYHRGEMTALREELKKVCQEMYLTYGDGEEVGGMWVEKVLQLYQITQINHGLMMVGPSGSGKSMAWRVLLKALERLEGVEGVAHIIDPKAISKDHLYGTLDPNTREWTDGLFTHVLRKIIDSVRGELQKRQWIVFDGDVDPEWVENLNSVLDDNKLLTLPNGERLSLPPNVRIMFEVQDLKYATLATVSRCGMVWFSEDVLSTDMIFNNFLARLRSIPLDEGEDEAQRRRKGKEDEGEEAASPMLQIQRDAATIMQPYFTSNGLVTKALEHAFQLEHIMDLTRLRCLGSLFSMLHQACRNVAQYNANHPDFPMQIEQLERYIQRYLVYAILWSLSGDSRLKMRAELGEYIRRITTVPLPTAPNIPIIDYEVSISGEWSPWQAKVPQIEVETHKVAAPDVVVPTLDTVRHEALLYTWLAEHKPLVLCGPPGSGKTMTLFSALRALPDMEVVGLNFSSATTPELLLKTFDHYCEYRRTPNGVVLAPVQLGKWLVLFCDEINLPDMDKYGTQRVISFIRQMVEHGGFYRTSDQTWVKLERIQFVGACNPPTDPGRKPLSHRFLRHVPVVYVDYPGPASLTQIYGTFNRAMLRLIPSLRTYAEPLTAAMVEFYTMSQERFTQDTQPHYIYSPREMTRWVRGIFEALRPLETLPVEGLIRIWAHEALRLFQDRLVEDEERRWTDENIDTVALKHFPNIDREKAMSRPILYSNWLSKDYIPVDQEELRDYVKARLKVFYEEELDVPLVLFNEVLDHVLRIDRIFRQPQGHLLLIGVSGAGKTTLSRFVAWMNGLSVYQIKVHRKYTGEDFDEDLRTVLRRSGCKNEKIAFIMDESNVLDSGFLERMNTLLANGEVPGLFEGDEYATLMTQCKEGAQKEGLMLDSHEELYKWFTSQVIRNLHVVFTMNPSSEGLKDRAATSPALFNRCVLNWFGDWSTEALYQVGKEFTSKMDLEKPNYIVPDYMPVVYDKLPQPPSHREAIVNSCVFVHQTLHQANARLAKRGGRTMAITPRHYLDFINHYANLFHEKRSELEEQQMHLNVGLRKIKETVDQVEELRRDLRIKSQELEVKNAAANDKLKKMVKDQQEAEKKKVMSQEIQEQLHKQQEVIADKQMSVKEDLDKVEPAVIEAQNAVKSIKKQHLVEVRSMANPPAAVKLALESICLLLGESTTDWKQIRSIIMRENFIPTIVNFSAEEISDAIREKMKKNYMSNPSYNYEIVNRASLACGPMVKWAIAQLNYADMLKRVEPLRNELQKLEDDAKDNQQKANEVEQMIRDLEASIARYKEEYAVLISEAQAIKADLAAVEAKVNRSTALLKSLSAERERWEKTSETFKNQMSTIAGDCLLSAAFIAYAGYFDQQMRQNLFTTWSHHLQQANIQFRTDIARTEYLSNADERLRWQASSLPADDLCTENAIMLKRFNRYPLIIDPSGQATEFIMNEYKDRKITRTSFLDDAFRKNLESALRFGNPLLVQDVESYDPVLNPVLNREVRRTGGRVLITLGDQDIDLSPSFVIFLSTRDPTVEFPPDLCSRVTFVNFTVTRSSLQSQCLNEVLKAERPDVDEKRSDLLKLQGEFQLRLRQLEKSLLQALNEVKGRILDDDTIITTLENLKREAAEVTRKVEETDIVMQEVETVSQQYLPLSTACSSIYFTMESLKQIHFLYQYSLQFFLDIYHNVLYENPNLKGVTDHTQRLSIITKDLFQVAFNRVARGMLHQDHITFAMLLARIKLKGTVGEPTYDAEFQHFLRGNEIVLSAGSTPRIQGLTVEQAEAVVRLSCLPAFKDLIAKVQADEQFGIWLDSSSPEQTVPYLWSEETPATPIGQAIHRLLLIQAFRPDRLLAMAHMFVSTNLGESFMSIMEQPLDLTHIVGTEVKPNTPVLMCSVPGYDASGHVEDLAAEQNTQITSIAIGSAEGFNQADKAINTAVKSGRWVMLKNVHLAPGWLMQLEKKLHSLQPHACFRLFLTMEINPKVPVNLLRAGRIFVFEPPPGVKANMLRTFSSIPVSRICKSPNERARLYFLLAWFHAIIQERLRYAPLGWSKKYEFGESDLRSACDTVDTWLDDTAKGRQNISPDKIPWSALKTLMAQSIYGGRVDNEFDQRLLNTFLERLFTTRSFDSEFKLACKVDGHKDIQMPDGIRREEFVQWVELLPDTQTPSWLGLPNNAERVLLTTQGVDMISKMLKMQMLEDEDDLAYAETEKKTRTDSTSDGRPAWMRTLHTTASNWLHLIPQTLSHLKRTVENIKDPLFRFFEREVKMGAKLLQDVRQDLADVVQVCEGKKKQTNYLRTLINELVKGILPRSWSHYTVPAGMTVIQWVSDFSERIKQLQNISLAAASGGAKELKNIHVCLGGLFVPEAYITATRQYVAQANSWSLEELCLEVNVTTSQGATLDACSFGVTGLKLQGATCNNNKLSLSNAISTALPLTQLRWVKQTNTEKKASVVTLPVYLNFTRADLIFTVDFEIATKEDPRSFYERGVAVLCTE
SMILES,"fold changes relative to vehicle control ([1]; HeLa, protein OPA1)","fold changes relative to vehicle control ([2]; protein M6PRBP1, HeLa)","fold changes relative to vehicle control ([3]; HeLa, protein CCNC)","fold changes relative to vehicle control ([4]; HeLa, protein CALR)","fold changes relative to vehicle control ([5]; protein DCTN1, HeLa)","fold changes relative to vehicle control ([6]; HeLa, captured protein DYNC1H1)","fold changes relative to vehicle control ([8]; HeLa, captured protein DJ-1)","fold changes relative to vehicle control ([3]; captured protein CCNC, HeLa)","fold changes relative to vehicle control ([6]; protein DYNC1H1, HeLa)","fold changes relative to vehicle control ([7]; protein TMEM66, HeLa)","fold changes relative to vehicle control [8, 10] [fold]",other results
"Nc1nc2c(c(=O)[nH]1)N(C=O)C(CNc1ccc(C(=O)N[C@@H](CCC(=O)O)C(=O)O)cc1)CN2 (some centres unmarked) [LEU, leucovorin]",0.88,1,1.13,1.15,1.14,1.02,1.1,–,–,–,–,"fold changes relative to vehicle control ([7]; HeLa, protein TMEM66 (TRA[…] 66 PRECURSOR)): 1.06"
NCCCNc1ccc(C(=O)NC(CCC(=O)O)C(=O)O)cc1 (centres unmarked) [compound 7],0.94,0.93,0.95,0.93,1.03,1.1,1.06,–,–,–,–,"fold changes relative to vehicle control [7, 9]: 0.87"
CCCCCCOc1cccc(Cc2cnc(N)nc2N)c1 [compound 2],1.02,1.68,–,–,1.27,–,–,0.9,1.03,1.29,2.24,"fold changes relative to vehicle control ([4]; HeLa, protein CALR (CALRETICULIN PRECURSOR.)): 3.14 fold"
CCCCCCOc1ccc(Cc2cnc(N)nc2N)cc1 [compound 1],0.82,1.23,–,–,1.18,–,–,0.89,1,1.16,1.34,"fold changes relative to vehicle control ([4]; HeLa, protein CALR (CA[…].)): 1.46 fold"
Nc1nc2cccc(-c3ccccc3)c2n1Cc1ccc(Cl)c(Cl)c1 [compound 3],1.01,0.94,–,–,1.1,–,–,0.93,1.07,0.98,0.85,"fold changes relative to vehicle control ([4]; HeLa, protein CALR (CA[…].)): 0.77 fold"
NCCOCCOCC(=O)Nc1nc2ncc(CNc3ccc(C(=O)NC(CCC(=O)O)C(=O)O)cc3)nc2c(=O)[nH]1 (centres unmarked) [compound 6],0.87,1.27,0.94,1.33,1.32,1.11,1.36,–,–,–,–,"fold changes relative to vehicle control [7, 9]: 0.85"
"Nc1nc2[nH]cc(CCc3ccc(C(=O)N[C@@H](CCC(=O)O)C(=O)O)cc3)c2c(=O)[nH]1 [PTX, pemetrexed]",–,–,–,–,–,–,–,–,–,–,–,fold changes relative to vehicle control [1]: 0.84; fold changes relative to vehicle control [2]: 1.06; fold changes relative to vehicle control [3]: 0.83; fold changes relative to vehicle control [4]: 1.22; fold changes relative to vehicle control [5]: 1.17; fold changes relative to vehicle control [6]: 0.99; fold changes relative to vehicle control [7]: 0.92; fold changes relative to vehicle control [8]: 1.28

# — article PMC6199744, “Development of Chemical Proteomics for the Folateome and Analysis of the Kinetoplastid Folateome” (ACS Infectious Diseases, 2018)
